The structures appear in SMILES notation.

One data set addresses T1, human TAAR1 (Homo sapiens, UniProt Q96RJ0).
T1 construct: expressed in transfected cells; host or cells: cAMP Hunter CHO-K1 AGTRL1 Gi cells
T1 sequence (Q96RJ0 1-339): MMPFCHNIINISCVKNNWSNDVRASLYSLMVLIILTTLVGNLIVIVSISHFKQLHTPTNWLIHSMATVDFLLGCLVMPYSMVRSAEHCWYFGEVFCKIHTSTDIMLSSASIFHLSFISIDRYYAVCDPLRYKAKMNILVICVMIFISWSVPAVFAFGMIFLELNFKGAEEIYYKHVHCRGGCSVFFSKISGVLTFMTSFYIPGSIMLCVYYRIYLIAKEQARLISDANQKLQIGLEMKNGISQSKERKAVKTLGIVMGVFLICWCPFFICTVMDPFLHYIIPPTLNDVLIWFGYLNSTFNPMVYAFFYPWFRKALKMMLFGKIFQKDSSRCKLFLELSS
In words: cAMP assay, functional agonist activity at human TAAR1. The format is cell-based. The method, then: Cells were seeded in a total volume of 20 µL into white-walled, 384-well microplates, followed by incubation at 37°C for the appropriate time before testing. Different concentrations of compounds were added to cells, and incubation was undertaken at 37°C for 10 min, with p-tyramine used as the MAX control. cAMP modulation was determined using the DiscoverX HitHunter cAMP XS + assay. Percentage activity was calculated using the following equation: Activity %=mean RLUtest sample – mean RLUvehicle control/mean RLUMAX control – mean RLUvehicle control×100%.
Background: Cyclic AMP is a second messenger, typically raised through Gs and lowered through Gi signalling.

For data set [1], the system named is MK801-induced schizophrenia-like behavior. In words: MK801-induced schizophrenia-like behavior (open field, distance traveled). The format is in vivo, C57BI/6J mice. The method, then:
Ninety-nine male C57BI/6J mice were divided randomly into 11 groups. Mice were placed in a room 1 h before testing. They were administered (p.o.) vehicle (0.1 ml/10 g), 50A (0.3, 1, 3, and 10 mg/kg; 0.1 ml/10 g), or 50B (0.3, 1, 3, and 10 mg/kg; 0.1 ml/10 g). […] Then, mice were administered (i.p.) MK801 (0.8 mg/kg dissolved in physiologic saline; 0.1 ml/10 g). After 30 min, the distance that mice traveled was measured.
Forty-six male C57BI/6J mice were divided randomly into four groups. The CN group contained four mice. […] The administration method described previously was employed.

The next data set relates to catalepsy. In words: Catalepsy assay (bar test). The format is in vivo, C57BI/6J mice. Conditions: 100 mg/kg p.o., 30 and 90 min after administration. The method, then: Twenty-four male C57BI/6J mice were divided randomly into four groups. Mice were placed in a room 1 h before testing. […] The front paws of mice were placed on a horizontal metal bar raised 2 inches above a Plexiglas™ platform 30 min and 90 min after administration. The time the front paws of mice were placed on the platform was recorded at ≤30 s per trial. Each test was repeated three times.

In general, EC50 refers to the midpoint of the concentration-response curve. A higher EC50 goes with weaker potency. What is called Emax is the maximal effect, on the per cent scale that the assay sets. For `c1csc([C@H]2CNCCO2)c1` [Compound 50A], the EC50 at human TAAR1 was found to be 6.25 µM. In addition, the Emax at human TAAR1 (cAMP modulation, p-tyramine as MAX control, read-out: TAAR1 Agonist % Emax) was 64%. Moreover, the “Inhibition of MK801-induced schizophrenia-like behavior (effective doses)” value in data set [1] (mice, single oral dose 0.3, 1, 3 and 10 mg/kg, MK801 0.8 mg/kg i.p.) is on record as “only at 1 mg/kg”. Also, the “Distance moved by mice in the presence or absence of MK801” value in data set [1] (single oral dose 0.3, 1, 3 and 10 mg/kg) was “significantly reduced the distance moved by mice”. Besides, in the data set with catalepsy, the “Time mice spent holding bars (catalepsy)” value was “did not increase this time”.
As to `O=C1CCc2ccc(OCCCCN3CCN(c4cccc(Cl)c4Cl)CC3)cc2N1` [aripiprazole, reference compound], the MK801-induced schizophrenia-like behavior result in data set [1] (mice, aripiprazole 5 mg/kg p.o., MK801 0.8 mg/kg i.p.) was “significantly reduced”.
In the case of `Cc1nc2n(c(=O)c1CCN1CCC(c3noc4cc(F)ccc34)CC1)CCCC2` [risperidone, reference compound], the MK801-induced schizophrenia-like behavior entry in data set [1] (mice, risperidone 0.1 mg/kg p.o., MK801 0.8 mg/kg i.p.) is on record as “significantly reduced”.

The values are drawn from publication PMC10160475, “Biological evaluation and in silico studies of novel compounds as potent TAAR1 agonists that could be used in schizophrenia treatment” (Frontiers in Pharmacology, 2023).
